Results: US20230190760A1, “ADVANTAGEOUS THERAPIES FOR DISORDERS MEDIATED BY IKAROS OR AIOLOS” (C4 Therapeutics, Inc., priority 2020, published 2023)

Tested on: NCIH929.1 cells
Assay: NCIH929.1 cell viability assay (CellTiter-Glo, GI50)
Type: cell-based
Conditions: 96 hr

## CC1(CN2CCC(n3cc(Cc4ccc5c6c(cccc46)C(=O)N5C4CCC(=O)NC4=O)cn3)CC2)CC1 (stereo not drawn) [Compound 7, 3-(6-((1-(1-((1-methylcyclopropyl)methyl)piperidin-4-yl)-1H-pyrazol-4-yl)methyl)-2-oxobenzo[cd]indol-1(2H)-yl)piperidine-2,6-dione]
  GI50: 0.0159 nM

## N#Cc1ccc(N2CCN(Cc3ccc(Cc4ccc5c6c(cccc46)C(=O)N5C4CCC(=O)NC4=O)cc3)CC2)c(F)c1 (stereo not drawn) [Compound 4, 4-(4-(4-((1-(2,6-dioxopiperidin-3-yl)-2-oxo-1,2-dihydrobenzo[cd]indol-6-yl)methyl)benzyl)piperazin-1-yl)-3-fluorobenzonitrile]
  GI50: 0.0201 nM

## O=C1CCC(N2C(=O)c3cccc4c(Cc5ccc(CN6CCN(c7ccccc7F)CC6)cc5)ccc2c34)C(=O)N1 (stereo not drawn) [Compound 3, 3-(6-(4-((4-(2-fluorophenyl)piperazin-1-yl)methyl)benzyl)-2-oxobenzo[cd]indol-1(2H)-yl)piperidine-2,6-dione]
  GI50: 0.0409 nM

## O=C1CCC(N2C(=O)c3cccc4c(Cc5ccc(CN6CCOCC6)cc5)ccc2c34)C(=O)N1 (stereo not drawn) [Compound 5, 3-(6-(4-(morpholinomethyl)benzyl)-2-oxobenzo[cd]indol-1(2H)-yl)piperidine-2,6-dione]
  GI50: 0.0498 nM

## O=C1CCC(N2C(=O)c3cccc4c(Cc5cnn(C6CCN(CC7(F)CC7)CC6)c5)ccc2c34)C(=O)N1 (stereo not drawn) [Compound 13, 3-(6-((1-(1-((1-fluorocyclopropyl)methyl)piperidin-4-yl)-1H-pyrazol-4-yl)methyl)-2-oxobenzo[cd]indol-1(2H)-yl)piperidine-2,6-dione]
  GI50: 0.155 nM

## CC(C)(C)C(=O)N1CCC(C)(n2cc(Cc3ccc4c5c(cccc35)C(=O)N4C3CCC(=O)NC3=O)cn2)CC1 (stereo not drawn) [Compound 11, 3-(6-((1-(4-methyl-1-pivaloylpiperidin-4-yl)-1H-pyrazol-4-yl)methyl)-2-oxobenzo[cd]indol-1(2H)-yl)piperidine-2,6-dione]
  GI50: 0.0272 nM

## O=C1CC[C@H](N2C(=O)c3cccc4c(Cc5ccc(CN6CCC7(CCCO7)CC6)cc5)ccc2c34)C(=O)N1 (single isomer, unassigned) [Compound 12]
  GI50: 0.0107 nM

## CC(C)(C)CN1CCC(C)(n2cc(Cc3ccc4c5c(cccc35)C(=O)N4C3CCC(=O)NC3=O)cn2)CC1 (stereo not drawn) [Compound 10, 3-(6-((1-(4-methyl-1-neopentylpiperidin-4-yl)-1H-pyrazol-4-yl)methyl)-2-oxobenzo[cd]indol-1(2H)-yl)piperidine-2,6-dione]
  GI50: 0.0621 nM

## CC1(C(=O)N2CCC(C)(n3cc(Cc4ccc5c6c(cccc46)C(=O)N5C4CCC(=O)NC4=O)cn3)CC2)CCC1 (stereo not drawn) [Compound 6, 3-(6-((1-(4-methyl-1-(1-methylcyclobutane-1-carbonyl)piperidin-4-yl)-1H-pyrazol-4-yl)methyl)-2-oxobenzo[cd]indol-1(2H)-yl)piperidine-2,6-dione]
  GI50: 0.0146 nM

## CC1(CN2CCC(n3cc(Cc4ccc5c6c(cccc46)C(=O)N5C4CCC(=O)NC4=O)cn3)CC2)CCC1 (stereo not drawn) [Compound 2, 3-(6-((1-(1-((1-methylcyclobutyl)methyl)piperidin-4-yl)-1H-pyrazol-4-yl)methyl)-2-oxobenzo[cd]indol-1(2H)-yl)piperidine-2,6-dione]
  GI50: 0.00933 nM

## CC1(CN2CCC(C)(n3cc(Cc4ccc5c6c(cccc46)C(=O)N5C4CCC(=O)NC4=O)cn3)CC2)CC1 (stereo not drawn) [Compound 8, 3-(6-((1-(4-methyl-1-((1-methylcyclopropyl)methyl)piperidin-4-yl)-1H-pyrazol-4-yl)methyl)-2-oxobenzo[cd]indol-1(2H)-yl)piperidine-2,6-dione]
  GI50: 0.138 nM

## CC(C)(C)CN1CCC(n2cc(Cc3ccc4c5c(cccc35)C(=O)N4C3CCC(=O)NC3=O)cn2)CC1 (stereo not drawn) [Compound 9, 3-(6-((1-(1-neopentylpiperidin-4-yl)-1H-pyrazol-4-yl)methyl)-2-oxobenzo[cd]indol-1(2H)-yl)piperidine-2,6-dione]
  GI50: 0.0297 nM
